Drawing on US8101632B2, “5-furopyridinone substituted indazoles” (Albany Molecular Research, Inc., priority 2007, dated 2012), this text covers melting point for 21 compounds.

Counter-ions that a name gives are not always drawn.

For orientation: melting point means the temperature of the solid-liquid transition. Take `Cc1ccc(-c2cc3c(=O)n(-c4ccc5c(cnn5CCN5CCCC5)c4)ccc3o2)c(F)c1.Cl`: the melting point was 268 to 270 °C.

For the compound `Cl.O=c1c2cc(-c3ccc(Cl)cc3)oc2ccn1-c1ccc2c(cnn2CCN2CCOCC2)c1`, the melting point is 260 to 268 °C (dec.). Regarding `Cl.O=c1c2cc(-c3ccc(F)cc3F)oc2ccn1-c1ccc2c(cnn2CCN2CCCC2)c1`, the melting point was in the range of 256 to 258 °C. In the case of `Cl.O=c1c2cc(-c3ccc(Cl)cc3)oc2ccn1-c1ccc2c(cnn2CCN2CC[C@@H](O)C2)c1`, the melting point was 242 to 246 °C (dec.). As to `COc1cc(Cl)ccc1-c1cc2c(=O)n(-c3ccc4c(cnn4CCN4CCCC4)c3)ccc2o1.Cl`, the melting point was 240 to 242 °C. In the case of `Cl.O=c1c2cc(-c3ccccc3F)oc2ccn1-c1ccc2c(cnn2CCN2CCCC2)c1` it was 264 to 266 °C; in that of `Cl.O=c1c2cc(-c3ccc(Cl)cc3)oc2ccn1-c1ccc2c(cnn2CCN2CCNCC2)c1`, 298 to 300 °C (dec.); in that of `Cl.N#Cc1cc(F)ccc1-c1cc2c(=O)n(-c3ccc4c(cnn4CCN4CCCC4)c3)ccc2o1`, 120 to 122 °C. In the case of `Cl.O=c1c2cc(-c3ccc(Cl)cc3Cl)oc2ccn1-c1ccc2c(cnn2CCN2CCCC2)c1` it was 258 to 260 °C; in that of `Cl.O=c1c2cc(-c3ccc(Cl)cc3F)oc2ccn1-c1ccc2c(cnn2CCN2CCCC2)c1`, 256 to 258 °C; in that of `O=c1c2cc(-c3ccc(Cl)cn3)oc2ccn1-c1ccc2c(cnn2CCN2CCCC2)c1` (as salt: hydrochloride) [Example 17, 2-(5-Chloropyridin-2-yl)-5-(1-(2-(pyrrolidin-1-yl)ethyl)-1H-indazol-5-yl)furo[3,2-c]pyridin-4(5H)-one dihydrochloride], 268 to 270 °C. In the case of `Cl.O=c1c2cc(-c3ccccc3Cl)oc2ccn1-c1ccc2c(cnn2CCN2CCCC2)c1` it was 102 to 104 °C; in that of `Cc1ccc(-c2cc3c(=O)n(-c4ccc5c(cnn5CCN5CCCC5)c4)ccc3o2)cc1.Cl`, 262 to 264 °C; in that of `O=c1c2cc(-c3ccccn3)oc2ccn1-c1ccc2c(cnn2CCN2CCCC2)c1` (as salt: hydrochloride), 50 to 52 °C. Compound `O=c1c2cc(-c3ccc(F)cn3)oc2ccn1-c1ccc2c(cnn2CCN2CCCC2)c1` (as salt: hydrochloride) [Example 23, 2-(5-Fluoropyridin-2-yl)-5-(1-(2-(pyrrolidin-1-yl)ethyl)-1H-indazol-5-yl)furo[3,2-c]pyridin-4(5H)-one dihydrochloride] came in with a melting point of 266 to 268 °C. In the case of `O=c1c2cc(-c3cccnc3)oc2ccn1-c1ccc2c(cnn2CCN2CCCC2)c1` (as salt: hydrochloride) [Example 22, 2(Pyridin-3-yl)-5-(1-(2-(pyrrolidin-1-yl)ethyl)-1H-indazol-5-yl)furo[3,2-c]pyridin-4(5H)-one dihydrochloride] it was 188 to 190 °C; in that of `O=c1c2cc(-c3ncccn3)oc2ccn1-c1ccc2c(cnn2CCN2CCCC2)c1` (as salt: hydrochloride) [Example 26, 2-(Pyrimidin-2-yl)-5-(1-(2-(pyrrolidin-1-yl)ethyl)-1H-indazol-5-yl)furo[3,2-c]pyridin-4(5H)-one Dihydrochloride], 272 to 274 °C.

`Cl.O=c1c2cc(-c3ccc(F)cc3)oc2ccn1-c1ccc2c(cnn2CCN2CCCC2)c1`: the melting point was 218 to 220 °C.

`Cc1ccc(-c2cc3c(=O)n(-c4ccc5c(cnn5CCN5CCCC5)c4)ccc3o2)nn1.Cl` had a melting point of 282 to 284 °C.

Turning to `Cl.O=c1c2cc(-c3ccc(C(F)(F)F)cc3)oc2ccn1-c1ccc2c(cnn2CCN2CCCC2)c1`, the melting point lay in the range of 252 to 254 °C. In the case of `Cl.O=c1c2cc(-c3ccc(F)cc3Cl)oc2ccn1-c1ccc2c(cnn2CCN2CCCC2)c1` it was 140 to 142 °C.
